According to patent publication US8383647B2, “Quinoline derivative” (Takeda Pharmaceutical Company Limited, priority 2009, dated 2013):
Counter-ions that a name gives are not always drawn.

Columns and labels:
[1] = biological target: human SLC-1 (Homo sapiens, UniProt Q99705); assay: MCH receptor antagonistic activity (inhibitory activity, Experimental Example 1); type: biochemical
[2] = biological target: rat SLC-1 (Rattus norvegicus, UniProt P97639); assay: as above; type: biochemical
Chain of rat SLC-1 (P97639 whole entry): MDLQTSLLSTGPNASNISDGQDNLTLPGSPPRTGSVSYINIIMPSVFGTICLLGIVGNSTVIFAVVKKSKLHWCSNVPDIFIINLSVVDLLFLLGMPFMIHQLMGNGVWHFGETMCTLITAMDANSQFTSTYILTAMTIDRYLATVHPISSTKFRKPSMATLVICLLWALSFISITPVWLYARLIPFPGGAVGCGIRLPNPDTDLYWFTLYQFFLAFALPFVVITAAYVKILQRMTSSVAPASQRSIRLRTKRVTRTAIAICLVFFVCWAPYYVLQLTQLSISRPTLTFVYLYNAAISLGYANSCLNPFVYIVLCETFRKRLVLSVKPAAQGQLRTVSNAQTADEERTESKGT

Chain of human SLC-1 (Q99705 whole entry): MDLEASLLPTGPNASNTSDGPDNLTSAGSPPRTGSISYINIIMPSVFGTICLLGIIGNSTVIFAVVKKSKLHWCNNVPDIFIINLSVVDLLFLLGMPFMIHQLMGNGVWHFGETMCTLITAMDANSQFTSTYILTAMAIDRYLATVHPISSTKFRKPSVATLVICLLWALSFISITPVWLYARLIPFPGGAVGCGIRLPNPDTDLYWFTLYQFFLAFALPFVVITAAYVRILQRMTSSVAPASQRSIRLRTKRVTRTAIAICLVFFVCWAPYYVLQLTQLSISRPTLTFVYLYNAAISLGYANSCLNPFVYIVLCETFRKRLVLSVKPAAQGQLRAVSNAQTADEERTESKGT

| SMILES | IC50 [1] | IC50 [2] | melting point |
| --- | --- | --- | --- |
| CCCNCc1cnc2c(C)c(NC(=O)c3ccc(OC[C@@H]4CCCO4)cc3F)ccc2c1 [Example 71, 2-fluoro-N-{8-methyl-3-[(propylamino)methyl]quinolin-7-yl}-4-[(2S)-tetrahydrofuran-2-ylmethoxy]benzamide] | 5 nM | 8 nM | 120 to 121 °C |
| Cc1c(NC(=O)c2ccc(OC[C@@H]3CCCO3)cc2F)ccc2cc(CNCC(C)C)cnc12 [Example 70, 2-fluoro-N-(8-methyl-3-{[(2-methylpropyl)amino]methyl}quinolin-7-yl)-4-[(2S)-tetrahydrofuran-2-ylmethoxy]benzamide] | 2.7 nM | 3.2 nM | 133 to 134 °C |
| COC(C)(C)CNCc1cnc2c(C)c(NC(=O)c3ccc(OC[C@@H]4CCCO4)cc3)ccc2c1 (as salt: hydrochloride) [Example 30, N-(3-{[(2-methoxy-2-methylpropyl)amino]methyl}-8-methylquinolin-7-yl)-4-[(2S)-tetrahydrofuran-2-ylmethoxy]benzamide dihydrochloride] | – | – | 235 to 237 °C |
| Cc1c(NC(=O)c2ccc(OC[C@@H]3CCCO3)cc2)ccc2cc(CN[C@H](C)C(C)(C)C)cnc12 [Example 58, N-[8-methyl-3-({[(1R)-1,2,2-trimethylpropyl]amino}methyl)quinolin-7-yl]-4-[(2S)-tetrahydrofuran-2-ylmethoxy]benzamide] | 6.8 nM | 11 nM | 140 to 141 °C |
| Cc1c(NC(=O)c2ccc(OCC3CCOC3)cc2)ccc2cc(CNCC(C)(C)C)cnc12 (stereo not shown) [Example 62, N-(3-{[(2,2-dimethylpropyl)amino]methyl}-8-methylquinolin-7-yl)-4-(tetrahydrofuran-3-ylmethoxy)benzamide] | 2.2 nM | 2.7 nM | 129 °C |
| Cc1c(NC(=O)c2ccc(OC[C@@H]3CCCO3)cc2F)ccc2cc(CN[C@H]3CC[C@](C)(O)CC3)cnc12 [Example 69, 2-fluoro-N-(3-{[(trans-4-hydroxy-4-methylcyclohexyl)amino]methyl}-8-methylquinolin-7-yl)-4-[(2S)-tetrahydrofuran-2-ylmethoxy]benzamide] | 6.1 nM | 7.1 nM | 171 to 172 °C |
| COC(C)(C)CNCc1cnc2c(C)c(NC(=O)c3ccc(OCC4CCOC4)cc3)ccc2c1 (stereo not shown) [Example 65, N-(3-{[(2-methoxy-2-methylpropyl)amino]methyl}-8-methylquinolin-7-yl)-4-(tetrahydrofuran-3-ylmethoxy)benzamide] | – | – | 137 °C |
| COC(C)(C)CNCc1cnc2c(C)c(NC(=O)c3ccc(OC[C@@H]4CCCO4)cc3)ccc2c1 [Example 30, N-(3-{[(2-methoxy-2-methylpropyl)amino]methyl}-8-methylquinolin-7-yl)-4-[(2S)-tetrahydrofuran-2-ylmethoxy]benzamide dihydrochloride] | 8.4 nM | 11 nM | – |
| Cc1c(NC(=O)c2ccc(OCC3CCOC3)cc2)ccc2cc(CN3CCC(C)(O)CC3)cnc12 (stereo not shown) [Example 66, N-{3-[(4-hydroxy-4-methylpiperidin-1-yl)methyl]-8-methylquinolin-7-yl}-4-(tetrahydrofuran-3-ylmethoxy)benzamide] | – | – | 160 to 162 °C |
| Cc1c(NC(=O)c2ccc(OCC3CCOC3)cc2)ccc2cc(CNCC3CCOCC3)cnc12 (stereo not shown) [Example 63, N-(8-methyl-3-{[(tetrahydro-2H-pyran-4-ylmethyl)amino]methyl}quinolin-7-yl)-4-(tetrahydrofuran-3-ylmethoxy)benzamide] | 3.7 nM | 4.5 nM | 122 to 123 °C |
| Cc1c(NC(=O)c2ccc(OCC3CCOC3)cc2)ccc2cc(CNC(C)C)cnc12 (stereo not shown) [Example 7, N-(8-methyl-3-{[(1-methylethyl)amino]methyl}quinolin-7-yl)-4-(tetrahydrofuran-3-ylmethoxy)benzamide] | – | – | 106 °C |
| Cc1c(NC(=O)c2ccc(OCC3CCOC3)cc2)ccc2cc(CNCC(C)C)cnc12 (stereo not shown) [Example 59, N-(8-methyl-3-{[(2-methylpropyl)amino]methyl}quinolin-7-yl)-4-(tetrahydrofuran-3-ylmethoxy)benzamide] | – | – | 132 °C |
| Cc1c(NC(=O)c2ccc(OCC3CCOC3)cc2)ccc2cc(CNCC(C)C)cnc12 (single isomer, unassigned) [Example 61, N-(8-methyl-3-{[(2-methylpropyl)amino]methyl}quinolin-7-yl)-4-(tetrahydrofuran-3-ylmethoxy)benzamide] | 2.2 nM | 2.1 nM | – |
| Cc1c(NC(=O)c2ccc(OCC3CCOC3)cc2)ccc2cc(CNCC(C)C)cnc12 (stereo not shown) [Example 60, N-(8-methyl-3-{[(2-methylpropyl)amino]methyl}quinolin-7-yl)-4-(tetrahydrofuran-3-ylmethoxy)benzamide] | – | – | 130 to 131 °C |

Continued, values first:

| IC50 [1] | IC50 [2] | melting point | SMILES |
| --- | --- | --- | --- |
| 6.5 nM | 9.5 nM | 159 to 161 °C | Cc1c(NC(=O)c2ccc(OC[C@@H]3CCCO3)cc2)ccc2cc(CN[C@H]3CC[C@@](C)(O)CC3)cnc12 [Example 52, N-(3-{[(cis-4-hydroxy-4-methylcyclohexyl)amino]methyl}-8-methylquinolin-7-yl)-4-[(2S)-tetrahydrofuran-2-ylmethoxy]benzamide] |
| 1.5 nM | 1.6 nM | – | Cc1c(NC(=O)c2ccc(OC[C@@H]3CCCO3)cc2)ccc2cc(CNCC3(O)CCCCC3)cnc12 [Example 41, N-[3-({[(1-hydroxycyclohexyl)methyl]amino}methyl)-8-methylquinolin-7-yl]-4-[(2S)-tetrahydrofuran-2-ylmethoxy]benzamide dihydrochloride] |
| – | – | 242 to 244 °C | Cc1c(NC(=O)c2ccc(OC[C@@H]3CCCO3)cc2)ccc2cc(CNCC3(O)CCCCC3)cnc12 (as salt: hydrochloride) [Example 41, N-[3-({[(1-hydroxycyclohexyl)methyl]amino}methyl)-8-methylquinolin-7-yl]-4-[(2S)-tetrahydrofuran-2-ylmethoxy]benzamide dihydrochloride] |
| 3.4 nM | 3.5 nM | 110 to 111 °C | Cc1c(NC(=O)c2ccc(OC[C@H]3CCCO3)cc2)ccc2cc(CNCC(C)(C)C)cnc12 [Example 25, N-(3-{[(2,2-dimethylpropyl)amino]methyl}-8-methylquinolin-7-yl)-4-[(2R)-tetrahydrofuran-2-ylmethoxy]benzamide] |
| 7.7 nM | 13 nM | 182 to 183 °C | Cc1c(NC(=O)c2ccc(OC[C@H]3CCCO3)cc2)ccc2cc(CN[C@H]3CC[C@H](O)CC3)cnc12 [Example 40, N-(3-{[(trans-4-hydroxycyclohexyl)amino]methyl}-8-methylquinolin-7-yl)-4-[(2R)-tetrahydrofuran-2-ylmethoxy]benzamide] |
| 6.8 nM | 8.8 nM | 118 to 119 °C | CC[C@@H](C)NCc1cnc2c(C)c(NC(=O)c3ccc(OC[C@@H]4CCCO4)cc3)ccc2c1 [Example 55, N-[8-methyl-3-({[(1R)-1-methylpropyl]amino}methyl)quinolin-7-yl]-4-[(2S)-tetrahydrofuran-2-ylmethoxy]benzamide] |
| – | – | 163 to 164 °C | Cc1c(NC(=O)c2ccc(OC[C@H]3CCCO3)cc2)ccc2cc(CN[C@H]3CC[C@@](C)(O)CC3)cnc12 [Example 53, N-(3-{[(cis-4-hydroxy-4-methylcyclohexyl)amino]methyl}-8-methylquinolin-7-yl)-4-[(2R)-tetrahydrofuran-2-ylmethoxy]benzamide] |
| – | – | 138 °C | Cc1c(NC(=O)c2ccc(OCC3CCCO3)cc2)ccc2cc(CNCC(C)(C)O)cnc12 (stereo not shown) [Example 1, N-(3-{[(2-hydroxy-2-methylpropyl)amino]methyl}-8-methylquinolin-7-yl)-4-(tetrahydrofuran-2-ylmethoxy)benzamide] |
| – | – | 98 to 101 °C | Cc1c(NC(=O)c2ccc(OCC3CCOC3)cc2)ccc2cc(CN[C@H]3CC[C@](C)(O)CC3)cnc12 (stereo partly drawn) [Example 64, N-(3-{[(trans-4-hydroxy-4-methylcyclohexyl)amino]methyl}-8-methylquinolin-7-yl)-4-(tetrahydrofuran-3-ylmethoxy)benzamide] |
| 3 nM | 4.1 nM | 156 to 158 °C | Cc1c(NC(=O)c2ccc(OC[C@@H]3CCCO3)cc2)ccc2cc(CNCC3CC3)cnc12 [Example 37, N-(3-{[(cyclopropylmethyl)amino]methyl}-8-methylquinolin-7-yl)-4-[(2S)-tetrahydrofuran-2-ylmethoxy]benzamide] |
| 2.8 nM | 3.2 nM | 148 to 149 °C | Cc1c(NC(=O)c2ccc(OCC3CCOC3)cc2)ccc2cc(CNC3CCCC3)cnc12 (stereo not shown) [Example 16, N-{3-[(cyclopentylamino)methyl]-8-methylquinolin-7-yl}-4-(tetrahydrofuran-3-ylmethoxy)benzamide] |
| 7.1 nM | 17 nM | 149 to 151 °C | CCNCc1cnc2c(C)c(NC(=O)c3ccc(OC[C@@H]4CCCO4)cc3)ccc2c1 [Example 35, N-{3-[(ethylamino)methyl]-8-methylquinolin-7-yl}-4-[(2S)-tetrahydrofuran-2-ylmethoxy]benzamide] |
| 9.8 nM | 17 nM | 142 to 144 °C | Cc1c(NC(=O)c2ccc(OC[C@@H]3CCCO3)cc2)ccc2cc(CNC3CCC3)cnc12 [Example 57, N-{3-[(cyclobutylamino)methyl]-8-methylquinolin-7-yl}-4-[(2S)-tetrahydrofuran-2-ylmethoxy]benzamide] |
| 4.1 nM | 5.3 nM | – | Cc1c(NC(=O)c2ccc(OC[C@H]3CCCO3)cc2)ccc2cc(CN[C@H]3CC[C@](C)(O)CC3)cnc12 [Example 51, N-(3-{[(trans-4-hydroxy-4-methylcyclohexyl)amino]methyl}-8-methylquinolin-7-yl)-4-[(2R)-tetrahydrofuran-2-ylmethoxy]benzamide] |
| – | – | 197 °C | Cc1c(NC(=O)c2ccc(OCC3CCCO3)cc2)ccc2cc(CN[C@H]3CCCC[C@@H]3O)cnc12 (stereo partly drawn) [Example 3, N-[3-({[(1S,2S)-2-hydroxycyclohexyl]amino}methyl)-8-methylquinolin-7-yl]-4-(tetrahydrofuran-2-ylmethoxy)benzamide] |
